From patent publication US6277825A (priority 1999, dated 2001) come the findings set out here.

Where a SMILES comes first, the peptide text is derived from it. Where no end group is shown, it is not given here. [ ]: non-standard residue; d: D form. Gla = N[C@@H](CC(C(=O)O)C(=O)O)C(=O)O

For orientation: IC50 means the concentration needed to halve the response being measured.

One data set has as its system NMDA receptor. The data set is classed as binding.
Details: not given
As for “(A^7,10,14)2-17: A^7,10,14 Con G with residue 1 deleted (EEELQANQALIRAKSN; ends and bridges not checked; UniProt P07231 81-97, looked up, variant E7A E10A E14A G1*)”, the IC50 result was “inactive”.

For the compound “(A^7,10,14)3-17: A^7,10,14 Con G with residues 1-2 deleted (EELQANQALIRAKSN; ends and bridges not checked; UniProt P07231 81-97, looked up, variant E7A E10A E14A del1-2)”, the IC50 result was “inactive”.

“(A^7,10,14)4-17: A^7,10,14 Con G with residues 1-3 deleted (ELQANQALIRAKSN; ends and bridges not checked; UniProt P07231 81-97, looked up, variant E7A E10A E14A del1-3)”: the IC50 entry was “inactive”.

For “(A^7,10,14)5-17: A^7,10,14 Con G with residues 1-4 deleted (LQANQALIRAKSN; ends and bridges not checked; UniProt P07231 81-97, looked up, variant E7A E10A E14A del1-4)”, the IC50 entry is “inactive”.

Consider “(A^7,10,14)6-17: A^7,10,14 Con G with residues 1-5 deleted (QANQALIRAKSN; ends and bridges not checked; UniProt P07231 81-97, looked up, variant E7A E10A E14A del1-5)”, for which the IC50 result was “inactive”.

Staying with this data set, now noted: read-out: IC50.
As for `CC[C@H](C)[C@H](NC(=O)[C@H](CC(C)C)NC(=O)[C@H](C)NC(=O)[C@H](CCC(N)=O)NC(=O)[C@H](CC(N)=O)NC(=O)[C@H](C)NC(=O)[C@H](CCC(N)=O)NC(=O)[C@H](CC(C)C)NC(=O)[C@H](CC(C(=O)O)C(=O)O)NC(=O)[C@H](CC(C(=O)O)C(=O)O)NC(=O)[C@H](CCC(=O)O)NC(=O)CN)C(N)=O` [(A^7,10)1-12] (H-GE[Gla][Gla]LQANQALI-NH2; N-terminus assumed), the IC50 worked out at 300 nM.

Turning to `CC[C@H](C)[C@H](NC(=O)[C@H](CC(C)C)NC(=O)[C@H](C)NC(=O)[C@H](CCC(N)=O)NC(=O)[C@H](CC(N)=O)NC(=O)[C@H](C)NC(=O)[C@H](CCC(N)=O)NC(=O)[C@H](CC(C)C)NC(=O)[C@H](CC(C(=O)O)C(=O)O)NC(=O)[C@H](CC(C(=O)O)C(=O)O)NC(=O)[C@H](CCC(=O)O)NC(=O)CN)C(=O)N[C@@H](CCCNC(=N)N)C(N)=O` [(A^7,10)1-13] (H-GE[Gla][Gla]LQANQALIR-NH2; N-terminus assumed), the IC50 was 253 nM.

As for `CC[C@H](C)[C@H](NC(=O)[C@H](CC(C)C)NC(=O)[C@H](Cc1ccc(O)cc1)NC(=O)[C@H](CCC(N)=O)NC(=O)[C@H](CC(N)=O)NC(=O)[C@H](C)NC(=O)[C@H](CCC(N)=O)NC(=O)[C@H](CC(C)C)NC(=O)[C@H](CC(C(=O)O)C(=O)O)NC(=O)[C@H](CC(C(=O)O)C(=O)O)NC(=O)[C@H](CCC(=O)O)NC(=O)CN)C(=O)N[C@@H](CCCNC(=N)N)C(=O)N[C@@H](CC(C(=O)O)C(=O)O)C(=O)N[C@@H](CCCCN)C(=O)N[C@@H](CO)C(=O)N[C@@H](CC(N)=O)C(N)=O` [A^7, Y^10] (H-GE[Gla][Gla]LQANQYLIR[Gla]KSN-NH2; N-terminus assumed), the IC50 amounted to 79 nM.

For `CC[C@H](C)[C@H](NC(=O)[C@H](CC(C)C)NC(=O)[C@H](CC(C(=O)O)C(=O)O)NC(=O)[C@H](CCC(N)=O)NC(=O)[C@H](CC(N)=O)NC(=O)[C@H](CC(C(=O)O)C(=O)O)NC(=O)[C@H](CCC(N)=O)NC(=O)[C@H](CC(C)C)NC(=O)[C@H](Cc1ccc(O)cc1)NC(=O)[C@H](CC(C(=O)O)C(=O)O)NC(=O)[C@H](CCC(=O)O)NC(=O)CN)C(=O)N[C@@H](CCCNC(=N)N)C(=O)N[C@@H](CC(C(=O)O)C(=O)O)C(=O)N[C@@H](CCCCN)C(=O)N[C@@H](CO)C(=O)N[C@@H](CC(N)=O)C(N)=O` [E^4] (H-GE[Gla]YLQ[Gla]NQ[Gla]LIR[Gla]KSN-NH2; N-terminus assumed), the IC50 was ≥ 20000 nM.

Regarding `CC[C@H](C)[C@H](NC(=O)[C@H](CC(C)C)NC(=O)[C@H](CC(C(=O)O)C(=O)O)NC(=O)[C@H](CCC(N)=O)NC(=O)[C@H](CC(N)=O)NC(=O)[C@H](CC(C(=O)O)C(=O)O)NC(=O)[C@H](CCC(N)=O)NC(=O)[C@H](CC(C)C)NC(=O)[C@H](CC(C(=O)O)C(=O)O)NC(=O)[C@H](Cc1ccc(O)cc1)NC(=O)[C@H](CCC(=O)O)NC(=O)CN)C(=O)N[C@@H](CCCNC(=N)N)C(=O)N[C@@H](CC(C(=O)O)C(=O)O)C(=O)N[C@@H](CCCCN)C(=O)N[C@@H](CO)C(=O)N[C@@H](CC(N)=O)C(N)=O` [Y^3] (H-GEY[Gla]LQ[Gla]NQ[Gla]LIR[Gla]KSN-NH2; N-terminus assumed), the IC50 is 960 nM.

System in another data set: not given
The settings on record: Frings audiogenic, mouse, tissue homogenate.
With `CC[C@H](C)[C@H](NC(=O)[C@H](CC(N)=O)NC(=O)[C@H](CCC(=O)O)NC(=O)[C@H](CCCNC(=N)N)NC(=O)[C@H](C)NC(=O)[C@H](CC(C)C)NC(=O)[C@H](CCC(=O)O)NC(=O)[C@H](C)NC(=O)[C@H](C)NC(=O)[C@H](CCSC)NC(=O)[C@H](CCCCN)NC(=O)[C@H](C)NC(=O)[C@@H](NC(=O)[C@H](CCC(=O)O)NC(=O)[C@H](CCC(=O)O)NC(=O)[C@H](CCC(=O)O)NC(=O)CN)C(C)C)C(=O)N[C@@H](C)C(=O)N[C@@H](CCCCN)C(=O)NCC(=O)N[C@H]1CSSC[C@@H](C(=O)N[C@@H](Cc2ccc(O)cc2)C(=O)N2CCC[C@H]2C(=O)O)NC(=O)[C@H](CC(N)=O)NC(=O)[C@H](C(C)C)NC(=O)[C@H](CCCCN)NC1=O` [ECon R], the T1/2 turned out to be 2.4 min.
